Data: ChEMBL document CHEMBL4184314, “Synthesis of new 4-aryloxy-N-arylanilines and their inhibitory activities against succinate-cytochrome c reductase” (Bioorg Med Chem Lett, 2018)

How the values were obtained:
[1] = Inhibition of porcine succinate-cytochrome c reductase using succinate and cytochrome c as substrate by spectrophotometric analysis; set-up: species or system Sus scrofa
Sus scrofa [2] = organism: Sus scrofa; assay: Inhibition of porcine succinate-cytochrome c reductase at 10 uM using succinate and cytochrome c as substrate by spectrophotometric analysis relative to control
Sus scrofa [3] = organism: Sus scrofa; assay: Inhibition of porcine succinate-cytochrome c reductase complex 2 at 10 uM using succinate and dichlorophenolindophenol as substrate by spectrophotometric analysis relative to control
Sus scrofa [4] = organism: Sus scrofa; assay: Inhibition of porcine succinate-cytochrome c reductase complex 3 at 10 uM using decylubiquinol and cytochrome c as substrate by spectrophotometric analysis relative to control

SMILES: c1ccc(COc2ccc(Oc3ccc(Nc4ccccc4)cc3)cc2)cc1
- IC50 [1]: > 10000 nM

SMILES: Clc1ccc(Oc2c(Cl)cc(Nc3ccccc3)cc2Cl)c(Cl)c1
- IC50 [1]: 41 nM

SMILES: FC(F)(F)c1cccc(Nc2ccc(Oc3ccccc3)cc2)c1
- IC50 [1]: 362 nM

SMILES: Cc1cccc(Nc2ccc(Oc3ccccc3)cc2)c1
- IC50 [1]: > 10000 nM

SMILES: Clc1ccc(Oc2ccc(Nc3ccccc3)cc2Cl)c(Cl)c1
- IC50 [1]: 43 nM

SMILES: Fc1cccc(Oc2ccc(Nc3ccccc3)cc2)c1F
- IC50 [1]: 1450 nM

SMILES: CO/C=C(\C(=O)OC)c1ccccc1Oc1cc(Oc2ccccc2C#N)ncn1 [Azoxystrobin]
- inhibition (Sus scrofa [2]): 99%
- inhibition (Sus scrofa [3]): 23%
- IC50 [1]: 287 nM
- inhibition (Sus scrofa [4]): 92%

SMILES: Cc1ccc(Nc2ccc(Oc3ccccc3)cc2)cc1
- IC50 [1]: > 10000 nM

SMILES: Cc1ccccc1Nc1ccc(Oc2ccccc2)cc1
- IC50 [1]: > 10000 nM

SMILES: Clc1cc(Cl)c(Oc2c(Cl)cc(Nc3ccccc3)cc2Cl)c(Cl)c1
- inhibition (Sus scrofa [2]): 89%
- inhibition (Sus scrofa [3]): 37%
- IC50 [1]: 21 nM
- inhibition (Sus scrofa [4]): 13%

SMILES: Fc1ccccc1Oc1ccc(Nc2ccccc2)cc1
- IC50 [1]: > 10000 nM

SMILES: Brc1ccccc1Oc1ccc(Nc2ccccc2)cc1
- IC50 [1]: > 10000 nM

SMILES: CC(C)CC(C)c1sccc1NC(=O)c1cn(C)nc1C(F)(F)F (stereo not drawn) [PENTHIOPYRAD]
- inhibition (Sus scrofa [2]): 82%
- inhibition (Sus scrofa [3]): 90%
- IC50 [1]: 1320 nM
- inhibition (Sus scrofa [4]): < 10%

SMILES: Brc1cc(Nc2ccccc2)ccc1Oc1ccccc1
- IC50 [1]: 323 nM

SMILES: Fc1cccc(Nc2ccc(Oc3ccccc3)cc2)c1
- IC50 [1]: 723 nM

SMILES: Clc1cc(Nc2ccccc2)cc(Cl)c1Oc1ccc2ccccc2c1
- inhibition (Sus scrofa [2]): 78%
- inhibition (Sus scrofa [3]): 42%
- IC50 [1]: 30 nM
- inhibition (Sus scrofa [4]): 15%

SMILES: CC(C)(C)c1ccc(Nc2ccc(Oc3ccccc3)cc2)cc1
- IC50 [1]: > 10000 nM

SMILES: Clc1ccc(Nc2ccc(Oc3ccccc3)cc2)cc1
- IC50 [1]: 464 nM

SMILES: COc1ccc(Oc2ccc(Nc3ccccc3)cc2)cc1
- IC50 [1]: > 10000 nM

SMILES: FC(F)(F)c1ccc(Nc2ccc(Oc3ccccc3)cc2)cc1
- IC50 [1]: 201 nM

SMILES: Clc1ccc(Oc2ccc(Nc3ccccc3)cc2)c(Cl)c1
- IC50 [1]: 172 nM

SMILES: Fc1ccc(Br)cc1Oc1ccc(Nc2ccccc2)cc1
- IC50 [1]: > 10000 nM

SMILES: Fc1ccc(Nc2ccc(Oc3ccccc3)cc2)cc1
- IC50 [1]: > 10000 nM

SMILES: Clc1cccc(Nc2ccc(Oc3ccccc3)cc2)c1
- IC50 [1]: > 10000 nM

SMILES: c1ccc(Nc2ccc(Oc3ccccc3)cc2)cc1
- IC50 [1]: > 10000 nM

SMILES: N#Cc1ccccc1Oc1ccc(Nc2ccccc2)cc1
- IC50 [1]: > 10000 nM
